The assay deals with mTOR. The assay can be described thus: mTOR signaling in neurons (p70-S6k Thr389 phosphorylation). It is filed as cell-based, mouse. How it is done: Immunoblotting. Mice were anesthetized with CO2 followed by decapitation, and the region of interest was rapidly dissected and frozen in liquid nitrogen and stored at −80° C. until further processing. Samples were sonicated at 4° C. in 1% SDS solution supplemented with protease, Trichostatin A (500 ng/ml) and PhosStop phosphatase inhibitor (Roche, Switzerland), and boiled for ten minutes. The protein concentration was determined using a BCA protein assay kit (ThermoFisherScientific, USA) according to the manufacturer's instructions. Protein samples were diluted in equal volume of 2×LDS sample buffer (Invitrogen) and supplemented with DTT to a final concentration of 200 mM (Sigma).
Additionally, there is significant agreement between genes sensitive to BET inhibition and mTOR inhibition.

For the compound `CC(=O)N1c2ccc(-c3ccc(CN4CCCCC4)cc3)cc2[C@H](Nc2ccccc2)CC1C` (stereo in doubt) [IBET858], the “mTOR activity, phosphorylation of p70-S6k at Thr389” value is on record as “significant, time-dependent decrease” and the mTOR protein levels result is recorded as “does not affect”.
